The subject of test [1] is (R)-2-octanol dehydrogenase. The test is described as follows: Oxidation activity of (R)-2-octanol dehydrogenase on various alcohols, NAD+ as coenzyme. It counts as biochemical, Pichia finlandica. Conditions: oxidation activity of (R)-2-octanol taken as 100. On the procedure: (§1) On the other hand, oxidation activity on (R)-2-octanol can be measured as follows. The activity can be validated by incubating at 30° C. the reaction mixture containing Tris-HCl buffer (pH 8.5, 50 mM), 2.5 mM NAD^+, 5 mM (R)-2-octanol, and the enzyme and by measuring increase of absorbance at 340 nm accompanying generation of NADH. 1 U was defined as the amount of the enzyme catalyzing generation of 1 μmol of NADH for 1 minute.
The (R)-2-octanol dehydrogenase was reacted with various alcohols and its oxidation activity was measured.

In test [2] the test system is (R)-2-octanol dehydrogenase. The test is described as above. In kind it is biochemical, Candida utilis. The settings on record: oxidation activity of (R)-2-octanol taken as 100. As to the method: as §1
The (R)-2-octanol dehydrogenase was reacted with various alcohols and its oxidation activity was measured. […] As a result, the relative activity was 6.7% for (S)-2-octanol, 8.3% for 2-propanol, and 86% for (R)-1-phenylethanol.

Test [3] relates to (R)-2-octanol dehydrogenase. Description: Reduction activity of the enzyme of Example 3 on various ketones, NADH as coenzyme. It counts as biochemical, Pichia finlandica. As to the method:
(§2) In the present invention, reduction activity on 4-chloroacetoacetic acid ester can be measured as follows. The activity can be validated by incubating at 30° C. the reaction mixture containing potassium phosphate buffer (pH 6.5, 100 mM), 0.2 mM NADH, 20 mM ethyl 4-chloroacetoacetate, and the enzyme and by measuring decrease of absorbance at 340 nm accompanying decrease of NADH. 1 U was defined as the amount of the enzyme catalyzing decrease of 1 μmol of NADH for 1 minute. Quantification of proteins can be done by dye binding method using the protein assay kit (BIORAD).
The enzyme of Example 3 was reacted with various ketones and its reduction activity was measured.

Test [4] relates to (R)-2-octanol dehydrogenase. The test is described as follows: Residual (R)-2-octanol dehydrogenase activity after treatment with reagents. It counts as biochemical, Pichia finlandica. On the procedure:
The (R)-2-octanol dehydrogenase was treated with various reagents at 30° C. for 30 minutes and the (R)-2-octanol dehydrogenase activity was measured.

Test [5] deals with (R)-2-octanol dehydrogenase. The test is described as follows: Activation of (R)-2-octanol dehydrogenase by reagents. It counts as biochemical, Pichia finlandica. The settings on record: for Relative activity: reagent 1 mM, activity without reagents = 100. As to the method: The activation effect of (R)-2-octanol dehydrogenase in various reagents was measured.
Test [6] has as its system (R)-2-octanol dehydrogenase. Description: Reduction activity of the enzyme of Example 35 on various ketones, NADH as coenzyme. It counts as biochemical, Candida utilis. As to the method: as §2
The enzyme of Example 35 was also reacted with various ketones and its reduction activity was measured. […] As a result, the relative activity was 26.6% for 2-octanone and 25.3% for acetophenone.

[7] abbreviates: reduction activity of 4-chloroacetoacetic acid ethyl ester taken as 100, NADH as coenzyme.
Setting [8] is: reagent 1 mM, 30° C. for 30 minutes, enzyme treated without reagents = 100.
Setting [9] is: reagent 0.01 mM, 30° C. for 30 minutes, enzyme treated without reagents = 100.
[10] abbreviates: 4-chloroacetoacetic acid ethyl ester taken as 100, NADH.
Setting [11] is: treated at 30° C. for 30 minutes.

Read-outs that look alike come from different tables or passages of the source.

In the case of `CCCCCC[C@H](C)O` [(S)-2-octanol], the “relative activity, oxidation reaction” value in test [1] (NAD+) is given as 4.7%; in test [1] (NAD+ as coenzyme), 4.73; in test [2] (NAD+), 6.7%; in test [2] (NAD+ as coenzyme), 6.7.
As for `CCC(C)=O` [2-Butanone], the “relative activity, reduction reaction” value in test [3] (setting [7]) was 7.99.
In the case of `[Cl-].[K+]` [KCl], the Residual activity in test [4] (setting [8]) worked out at 106%.
As for `Cl.NO` [NH2OHÑHCl], in test [4] (setting [9]), the Residual activity came out at 99%.
With `CCCCCCC(C)O` (centres unmarked) [2-Octanol], the “relative activity, oxidation reaction” value in test [1] (NAD+ as coenzyme) turned out to be 77.8; in test [2] (NAD+ as coenzyme) it was 8.3.
For `CCOC(=O)C[C@H](O)CCl` [Ethyl (S)-4-chloro-3-hydroxybutyrate], in test [1] (NAD+ as coenzyme), the “relative activity, oxidation reaction” value stood at 2.24.
Turning to `CCOC(=O)C[C@@H](O)CCl` [Ethyl (R)-4-chloro-3-hydroxybutyrate], in test [1] (NAD+ as coenzyme), the “relative activity, oxidation reaction” value was determined as 0.172.
Consider `[Cl-].[Cl-].[Mg+2]` [MgCl2Ñ6H2O, magnesium chloride], for which, in test [4], the Residual activity is on record as 185% and the “effect of reagent on the enzyme (inhibition / stabilization), in words” value (from here on “effect … (inhibition / stabilization), in words”) was “stabilized”. In addition, in test [5], the Relative activity turned out to be 122%.
As to `[Zn+2]` [zinc], the “activation of the enzyme, in words” value in test [5] is reported as “activated”.
As for `OCC[C@H](O)c1ccccc1` [(S)-1-phenyl-1,3-propanediol], the “relative activity, oxidation reaction” value in test [1] (NAD+ as coenzyme) came to 0.258.
On to (R)-2-butanol, for which the “relative activity, oxidation reaction” value in test [1] (NAD+ as coenzyme) worked out at 49.3.
For the compound `O=S(=O)(O)O` [sulphate ion], in test [5], the “activation of the enzyme, in words” value is “activated”.
Take `CC(C)O` [2-Propanol]: the entries for the “relative activity, oxidation reaction” value in test [1] (NAD+), in test [1] (NAD+ as coenzyme) and in test [2] (NAD+) were 6.8%, 6.79 and 8.3%, respectively.
In the case of `CCCCCCC(C)=O` [2-Octanone], the “relative activity, reduction reaction” value in test [3] (setting [10]) was 31.2%; in test [3] (setting [7]), 31.2; in test [6] (setting [10]), 26.6%; in test [6] (setting [7]) it was 26.6.
As to `CCOC(=O)CC(=O)CCl` [Ethyl 4-chloroacetoacetate], the “relative activity, reduction reaction” value in test [3] (setting [7]) and in test [6] (setting [7]) was 100 throughout.
Consider `C[C@H](O)CCO` [(S)-1,3-butanediol], for which the “relative activity, oxidation reaction” value in test [1] (NAD+ as coenzyme) is recorded as 0.516.
Same read-out and setting: the value for `CCCCC(C)O` (centres unmarked) [2-Hexanol] was 54.1.
As for `O[C@H](CS)[C@H](O)CS` (racemic) [Dithiothreitol], the Residual activity in test [4] (setting [8]) was determined as 123%.
On to `CC(=O)c1ccccc1` [Acetophenone], for which the “relative activity, reduction reaction” value in test [3] (setting [10]) is listed as 45%; in test [3] (setting [7]), 45.3; in test [6] (setting [10]), 25.3%; in test [6] (setting [7]), 25.3.
For the compound `CC(C)=O` [Acetone], the “relative activity, reduction reaction” value in test [3] (setting [7]) came out at 1.82.
`[Cl][Hg][Cl]` [HgCl2, mercury chloride]: the Residual activity in test [4] (setting [9]) was 62%. In test [4] (setting [11]), the “effect … (inhibition / stabilization), in words” value is listed as “slightly inhibited”.
Consider `C[C@@H](O)CCO` [(R)-1,3-butanediol], for which, in test [1] (NAD+ as coenzyme), the “relative activity, oxidation reaction” value is 1.29.
For the compound `C[C@H](O)c1ccccc1` [(S)-1-phenylethanol], the figures for the “relative activity, oxidation reaction” value in test [1] (NAD+ as coenzyme) and in test [2] (NAD+ as coenzyme) were 1.81 and 6.7, respectively.
As for `O=S(=O)([O-])[O-].[Cu+2]` [CuSO4], in test [4] (setting [8]), the Residual activity turned out to be 100%.
In the case of `CCCCCC[C@@H](C)O` [(R)-2-octanol], the “relative activity, oxidation reaction” value in test [1] (NAD+ as coenzyme) and in test [2] (NAD+ as coenzyme) was 100 each time.
For the compound `[Mn+2]` [manganese], the “activation of the enzyme, in words” value in test [5] was “activated”.
With `CCC=O` [Propionaldehyde], the “relative activity, reduction reaction” value in test [3] (setting [7]) is listed as 18.4.
As for `O.O.O.O.O.O.[Cl-].[Cl-].[Co+2]` [CoCl2Ñ6H2O], the Residual activity in test [4] (setting [8]) is on record as 99%.
With `OC1CCCCC1` [Cyclohexanol], in test [1] (NAD+ as coenzyme), the “relative activity, oxidation reaction” value was determined as 0.172.
Consider `c1cnc2c(c1)ccc1cccnc12` [o-Phenanthroline], for which the Residual activity in test [4] (setting [8]) was determined as 162%. Also, the “effect … (inhibition / stabilization), in words” value in test [4] (setting [11]) is recorded as “stabilized”.
For `CCOC(=O)C[C@H](C)O` [Ethyl (S)-3-hydroxybutyrate], the “relative activity, oxidation reaction” value in test [1] (NAD+ as coenzyme) stood at 1.03.
In the case of `CCN1C(=O)C=CC1=O` [N-ethylmaleimide], the Residual activity in test [4] (setting [8]) was 147%. Moreover, the “effect … (inhibition / stabilization), in words” value in test [4] (setting [11]) is reported as “stabilized”.
Consider `[Mg]` [magnesium], for which the “activation of the enzyme, in words” value in test [5] is “activated”.
`CCOC(=O)CC(C)=O` [Ethyl acetoacetate]: the “relative activity, reduction reaction” value in test [3] (setting [7]) is reported as 106.
`[Cl][Fe][Cl]` [FeCl2]: in test [4] (setting [8]), the Residual activity turned out to be 93%.
As to `CC(O)COc1ccccc1` (centres unmarked) [1-Phenoxy-2-propanol], the “relative activity, oxidation reaction” value in test [1] (NAD+ as coenzyme) was determined as 15.5.
Turning to `CC(=O)CCO` [4-Hydroxy-2-butanone], the “relative activity, reduction reaction” value in test [3] (setting [7]) amounted to 0.691.
With `C[C@@H](O)c1ccccc1` [(R)-1-phenylethanol], the “relative activity, oxidation reaction” value was determined as 255% in test [1] (NAD+), 255 in test [1] (NAD+ as coenzyme), 86% in test [2] (NAD+) and 86.7 in test [2] (NAD+ as coenzyme).
Regarding `OCC[C@@H](O)c1ccccc1` [(R)-1-phenyl-1,3-propanediol], the “relative activity, oxidation reaction” value in test [1] (NAD+ as coenzyme) is 0.344.
Regarding `O=S(=O)([O-])[O-].[Mg+2]` [MgSO4], the Relative activity in test [5] was 125%.
Consider `CCO` [Ethanol], for which the “relative activity, oxidation reaction” value in test [1] (NAD+ as coenzyme) is reported as 0.688.
Turning to `O=C([O-])CN(CCN(CC(=O)[O-])CC(=O)O)CC(=O)O.[Na+].[Na+]` [EDTAÑ2Na, ethylenediaminetetraacetic acid 2Na], the Residual activity in test [4] (setting [8]) is 81%. For the same compound, the “effect … (inhibition / stabilization), in words” value in test [4] (setting [11]) was “slightly inhibited”.
In the case of `CC(=O)COc1ccccc1` [1-Phenoxy-2-propanone], the “relative activity, reduction reaction” value in test [3] (setting [7]) was 54.2.
As for MnSO4Ñ4-5H2O, the Relative activity in test [5] was 121%.
With `[Cl-].[Cl-].[Zn+2]` [ZnCl2], the Residual activity in test [4] (setting [8]) is recorded as 96%. Further, the Relative activity in test [5] amounted to 105%.
(S)-2-butanol: the “relative activity, oxidation reaction” value in test [1] (NAD+ as coenzyme) turned out to be 7.31.
With `O.O.[Ba+2].[Cl-].[Cl-]` [BaCl2Ñ2H2O], the Residual activity in test [4] (setting [8]) turned out to be 102%.
`CCOC(=O)C[C@@H](C)O` [Ethyl (R)-3-hydroxybutyrate]: in test [1] (NAD+ as coenzyme), the “relative activity, oxidation reaction” value is 41.1.
With manganese chloride [MnCl2Ñ4H2O], the Residual activity in test [4] (setting [8]) is listed as 185%. The “effect … (inhibition / stabilization), in words” value in test [4] (setting [11]) is “stabilized”. For the same compound, the Relative activity in test [5] is listed as 114%.
For the compound `CCCCCCCCO` [1-Octanol], the “relative activity, oxidation reaction” value in test [1] (NAD+ as coenzyme) is given as 1.72.
As for `O=c1c(O)c(-c2ccc(O)c(O)c2)oc2cc(O)cc(O)c12` [Quercetin], the Residual activity in test [4] (reagent 0.1 mM, 30° C. for 30 minutes, enzyme treated without reagents = 100) is 99%.
Take `[Ca+2].[Cl-].[Cl-]` [CaCl2Ñ2H2O, calcium chloride]: in test [4], the Residual activity came to 174% and the “effect … (inhibition / stabilization), in words” value is “stabilized”.
For the compound `O.O.O.O.O.O.[Cl][Ni][Cl]` [NiCl2Ñ6H2O], the Residual activity in test [4] (setting [8]) is on record as 103%.
On the same count and under the same terms, then `O=S(=O)(F)Cc1ccccc1` [Phenylmethylsulfonyl fluoride], with 111%.
Regarding `O.O.O.O.O.O.O.O=S(=O)([O-])[O-].[Zn+2]` [ZnSO4Ñ7H2O], in test [5], the Relative activity is recorded as 110%.

The record behind these values is patent US7202069B2, “(R)-2-octanol dehydrogenases, methods for producing the enzymes, DNA encoding the enzymes, and methods for producing alcohols using the enzymes” (Daicel Chemical Industries, Ltd., priority 2000, dated 2007).
